# Measured values: patent US20090203685A1, “ANTI-PROLIFERATIVE COMPOUNDS FROM A 3-ARYL-COUMARINE OR 3-ARYL-QUINOLIN-2-ONE AND USES THEREOF” (EOS (ETHICAL ONCOLOGY SCIENCE) S.P.A., priority 2006, published 2009)
# Key:
# U937 cells [1] = assay: Proliferation test ViaLight HS, U937 cells (Example 8); type: cell-based, human; details: Homo sapiens, U-937, 72 h, 72 h incubation; range = multiple experiments, otherwise individual experiments
# Experimental: 2C Proliferation test ViaLight® HS High Sensitivity Cytotoxicity and Cell Proliferation BioAssay Kit
# This protocol allows the determination of the cytostatic and cytotoxic activities of compounds to be tested on mammalian cells in culture and was carried out essentially according to the manufacturer's recommendations.
# Cells are suspended in 15 mL of their respective media and are enumerated. They are then diluted in their media in order to obtain: • 2500 cells per 90 μL per well for MRC5 cells • 5000 cells per 90 μL per well for all other cell lines. Cells are then seeded in a 96 well plate, and incubated at least 4 hours in the incubator at 37° C. in 5% CO2.
# The molecules to be tested are diluted in DMEM with DMSO in order to obtain the following dilutions: • dilution at 250 μM/1% DMSO • dilution at 50 μM/1% DMSO • dilution at […] • dilution at 2 μM/1% DMSO • dilution at 400 nM/1% DMSO • dilution at 80 nM/1% DMSO For each well comprising 90 μL of cell suspension, 10 μL of a solution of the compound to be tested is added, with the 6 different concentrations. The plate is then incubated during 72 hours. One control plate is contacted with 10 μL of DMEM 1% DMSO, without compound to be tested. 50 μL of lysis buffer (test Vialight® lysis buffer) is added in each well of the control plate and the plate is incubated 10 minutes under hood.
# Then, 100 μL of test buffer (test Vialight® test buffer) is added in each well and the control plate is incubated during 2 minutes. The luminescence is read in each well. The mean luminescence for each type of cells is called T0.
# After the 72 h incubation, in order to determine the viability, 50 μL of lysis buffer (test Vialight® lysis buffer) is added in each well of the plates and the plates are incubated 10 minutes under hood.
# Then, 100 μL of test buffer (test Vialight® test buffer) is added in each well and the plates are incubated during 2 minutes. The luminescence is read in each well. For each type of cell, the mean luminescence in the well not containing the compound is called C72 and the mean luminescence in well containing a given concentration of a compound to be tested is called T72. For each dilution (concentration of compound to be tested), T0 and T72 values are compared.
# The graph is plotted for the different concentrations of compound and • GI50 (50% of growth inhibitory) is determined, this is the dose producing 50% of cell growth (intersection at Y=50); • TGI (total growth inhibitory) is determined on the graph, this is the dose producing the total arrest of the cell growth (intersection at Y=0); and • LC50 (50% of lethal concentration) is determined, this is the dose producing the death of 50% of the cells (intersection at Y=−50).
# Following the protocol described in Example 2C, different compounds according to the invention have been tested for their cytostatic and cytotoxic activities on mammalian cells in culture (specifically U937 cells).
# The GI50 (50% of growth inhibitory) has been determined for all the following compounds, i.e. the dose producing 50% of cell growth inhibition.
# Where the GI50 provided is in the form of a range, it means that multiple experiments, whose results fall within the range indicated, were performed. Otherwise, results of individual experiments are provided.
# U937 cells [2] = assay: Apoptosis assays by flow cytometry (caspase 3, annexin-V, sub-G1, G2/M, PI) in U937 cells; type: cell-based, human; details: 0.5 μM, 4 to 24 hours
# Experimental: FIG. 4: This figure depicts the time course of cellular effects induced by 0.5 μM of compound 01 in U937 cells.
# The percentage of cells showing activated Caspase 3 and phosphadityl serine exposure at the outer face of the plasma membrane were determined by flow cytometry, according the enclosed protocols. Both assays enable to detect early markers of apoptosis. […] Such DNA content is classically used as a marker of apoptosis. […] Finally, in this same experiment, the percentage of dead cells was determined by incorporation of propidium iodine. […]
# Wells corresponding to 4, 6, 8, 10 hours of incubation and Control 1 were analyzed on day 1.
# Wells corresponding to 12, 14, 16, 20, 24 hours of incubation and Control 2 were analyzed on day 2. […]
# Briefly, 5×10^5 cells were pelleted by centrifugation 1600 rpm/4° C., resuspended in 100 μl of ice-cold 1× Annexin-V Binding Buffer containing 1 μl of Annexin V-FITC solution and 5 μl of PI (250 μg/ml). After 15 minutes of incubation on ice in the dark, 400 μl of 1× binding buffer were added and cell preparations analysed by flow cytometry. […]
# For each data point, a minimum of 20.000 cells were analysed.
# Caspase-3,7 activity and Annexin-V binding were quantified using the FL-1 channel while PI staining was quantified using the FL-4 channel. […]
compound,measurement,setting,value
"COc1cc(NC(=S)NC(=O)/C=C/c2ccco2)ccc1-c1cc2ccccc2oc1=O [Compound 01, (2E)-3-(2-furyl)-N-({[3-methoxy-4-(2-oxo-2H-chromen-3-yl)phenyl]amino}carbonothioyl)acrylamide]",GI50,U937 cells [1],0.059 to 0.2 µM
same,Cytostatic effect on U937 cells (early increase of G2/M population),U937 cells [2],cytostatic effect
same,"Induction of apoptosis (activated caspase 3, phosphatidylserine exposure, sub-G1 DNA content)",U937 cells [2],induces apoptosis
